Among the data in ChEMBL document CHEMBL5727865, “4,6-substituted-pyrazolo[1,5-a]pyrazines as Janus kinase inhibitors” (2020) are IC50 values, retold here.

The structures appear in SMILES notation.

For assay [1], the target named is Tyrosine-protein kinase JAK1 (Homo sapiens, UniProt P23458). Kind of assay: JAK1 Inhibition Assay: Compounds of Formula I were screened for their ability to inhibit JAK1 using the general enzyme inhibition assay method, in which the assay mixture contained 1 mM ATP, 8 μM Omnia Y12 peptide (Catalog # IVGN KPZ3121C; Invitrogen Corporation, Carlsbad, Calif.) and 12.5 nM JAK1 in a total volume of 25 μL. JAK1 was purchased from Invitrogen Corporation, Carlsbad, Calif. (catalog # IVGN PV4775).

Assay [2] addresses Tyrosine-protein kinase JAK2 (Homo sapiens, UniProt O60674). Put plainly: JAK2 Inhibition Assay: Compounds of Formula I were screened for their ability to inhibit JAK2 using the general enzyme inhibition assay method, in which the assay mixture contained 1 mM ATP, 10 μM Omnia Y7 peptide (Catalog # IVGN KNZ3071C, Invitrogen Corporation, Carlsbad, Calif.) and 4 nM JAK2 in a total volume of 25 μL. JAK2 was purchased from Invitrogen Corporation, Carlsbad, Calif. (catalog # IVGN PV4288).

Chain of Tyrosine-protein kinase JAK2 (O60674 whole entry): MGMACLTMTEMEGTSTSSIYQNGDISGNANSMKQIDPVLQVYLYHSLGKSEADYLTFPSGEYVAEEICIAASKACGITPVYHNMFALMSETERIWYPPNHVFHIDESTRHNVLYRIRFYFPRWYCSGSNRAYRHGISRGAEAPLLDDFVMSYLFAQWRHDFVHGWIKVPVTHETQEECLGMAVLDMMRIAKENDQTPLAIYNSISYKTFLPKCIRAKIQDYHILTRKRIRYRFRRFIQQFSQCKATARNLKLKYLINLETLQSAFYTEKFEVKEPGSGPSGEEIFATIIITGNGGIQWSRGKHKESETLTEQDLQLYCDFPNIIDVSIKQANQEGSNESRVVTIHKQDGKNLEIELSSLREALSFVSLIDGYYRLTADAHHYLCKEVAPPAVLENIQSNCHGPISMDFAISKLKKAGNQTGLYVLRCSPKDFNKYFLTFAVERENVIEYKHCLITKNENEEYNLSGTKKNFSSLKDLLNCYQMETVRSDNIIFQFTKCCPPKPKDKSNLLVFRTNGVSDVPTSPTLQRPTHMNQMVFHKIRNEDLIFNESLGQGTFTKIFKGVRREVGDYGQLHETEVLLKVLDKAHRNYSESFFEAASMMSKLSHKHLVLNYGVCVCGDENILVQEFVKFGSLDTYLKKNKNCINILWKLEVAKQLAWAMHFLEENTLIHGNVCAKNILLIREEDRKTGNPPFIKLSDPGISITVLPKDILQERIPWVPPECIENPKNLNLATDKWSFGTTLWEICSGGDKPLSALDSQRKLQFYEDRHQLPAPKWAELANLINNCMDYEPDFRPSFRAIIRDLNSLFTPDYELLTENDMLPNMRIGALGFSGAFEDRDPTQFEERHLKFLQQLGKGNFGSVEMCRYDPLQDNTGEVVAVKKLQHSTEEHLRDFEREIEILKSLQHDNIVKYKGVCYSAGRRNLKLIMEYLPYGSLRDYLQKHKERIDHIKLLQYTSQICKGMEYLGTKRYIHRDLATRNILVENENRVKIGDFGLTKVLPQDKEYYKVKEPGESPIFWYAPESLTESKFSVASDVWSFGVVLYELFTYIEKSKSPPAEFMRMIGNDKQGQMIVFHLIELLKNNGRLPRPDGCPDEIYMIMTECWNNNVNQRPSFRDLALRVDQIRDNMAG
Chain of Tyrosine-protein kinase JAK1 (P23458 whole entry): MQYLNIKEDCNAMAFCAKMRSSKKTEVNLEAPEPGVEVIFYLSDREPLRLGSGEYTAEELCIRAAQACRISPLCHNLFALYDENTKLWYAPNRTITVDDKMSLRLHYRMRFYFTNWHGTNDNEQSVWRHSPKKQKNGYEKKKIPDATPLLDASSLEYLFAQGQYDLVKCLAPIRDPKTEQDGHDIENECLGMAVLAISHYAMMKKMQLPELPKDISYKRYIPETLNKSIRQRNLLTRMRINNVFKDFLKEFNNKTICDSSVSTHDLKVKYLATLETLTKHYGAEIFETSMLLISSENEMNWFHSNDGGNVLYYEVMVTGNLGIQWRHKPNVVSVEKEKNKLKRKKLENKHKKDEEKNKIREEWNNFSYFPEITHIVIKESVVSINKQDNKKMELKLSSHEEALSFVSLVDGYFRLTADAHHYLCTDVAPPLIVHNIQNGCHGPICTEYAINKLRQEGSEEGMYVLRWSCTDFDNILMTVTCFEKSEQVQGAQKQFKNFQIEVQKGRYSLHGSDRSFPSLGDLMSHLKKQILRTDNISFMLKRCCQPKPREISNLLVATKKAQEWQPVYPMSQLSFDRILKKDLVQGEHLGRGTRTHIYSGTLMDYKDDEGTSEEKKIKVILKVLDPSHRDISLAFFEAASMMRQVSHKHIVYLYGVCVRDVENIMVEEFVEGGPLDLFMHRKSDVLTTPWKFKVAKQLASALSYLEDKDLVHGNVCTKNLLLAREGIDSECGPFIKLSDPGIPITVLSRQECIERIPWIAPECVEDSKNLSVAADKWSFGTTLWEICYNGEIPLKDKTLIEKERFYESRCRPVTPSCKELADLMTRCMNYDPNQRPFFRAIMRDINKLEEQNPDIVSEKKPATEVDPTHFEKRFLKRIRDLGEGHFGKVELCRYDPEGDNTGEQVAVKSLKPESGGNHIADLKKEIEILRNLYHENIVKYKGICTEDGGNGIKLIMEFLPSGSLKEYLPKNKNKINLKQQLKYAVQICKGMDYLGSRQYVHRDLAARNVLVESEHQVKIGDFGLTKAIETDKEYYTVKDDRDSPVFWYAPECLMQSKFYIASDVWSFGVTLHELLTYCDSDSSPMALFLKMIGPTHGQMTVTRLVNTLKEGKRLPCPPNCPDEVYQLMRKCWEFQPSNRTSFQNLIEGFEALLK

Broadly, the IC50 is the point on the concentration scale where inhibition reaches its midpoint. As to `CCC(CC)n1cc(-c2nc(-c3cnn([C@H]4C[C@@](O)(CO)C4)c3)cn3nccc23)cn1`, the IC50 result in assay [1] was “in the range around 5.5 µM”. For `CCC(CC)n1cc(-c2nc(-c3cnn([C@H]4C[C@@H](O)[C@@H](O)C4)c3)cn3nccc23)cn1`, in assay [2], the IC50 was under 10 nM.
